Experimental data from ChEMBL document CHEMBL5665443, “Enzyme Inhibitor Single Concentration assay results for EUbOPEN Chemogenomics Library” (2024).

Assays:
Conditions in all cases: Hit No
[1] = target: N-glycosylase/DNA lyase (Homo sapiens) (UniProt O15527);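 note: OGG1 cleavage of a quenched duplex DNA oligonucleotide, coupled to APE1 for strand incision, read as fluorescence at 594 nm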
Description: Inhibition of OGG1 by quantifying inhibition of OGG1-mediated cleavage and dissociation of quenched duplex DNA oligonucleotides, measured as fluorescence at 594 nm. To generate a functional strand incision and increase turn-over this assay is coupled to APE1.

[2] = target: Endonuclease 8-like 1 (Homo sapiens) (UniProt Q96FI4);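 note: fluorescence at 594 nm from quenched duplex DNA oligonucleotides released by NEIL1 cleavage and strand separation, reported as reduction of this enzyme activity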
Description: Inhibition of NEIL1 by quantifying inhibition of NEIL1-mediated cleavage and dissociation of quenched duplex DNA oligonucleotides, measured as fluorescence at 594 nm.

[3] = target: T1, Endonuclease III-like protein 1 (Homo sapiens) (UniProt P78549);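 note: enzyme assay tracking NTHL1 cutting and release of a quenched double-stranded DNA oligo substrate, read as fluorescence at 594 nm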
T1 sequence (whole entry): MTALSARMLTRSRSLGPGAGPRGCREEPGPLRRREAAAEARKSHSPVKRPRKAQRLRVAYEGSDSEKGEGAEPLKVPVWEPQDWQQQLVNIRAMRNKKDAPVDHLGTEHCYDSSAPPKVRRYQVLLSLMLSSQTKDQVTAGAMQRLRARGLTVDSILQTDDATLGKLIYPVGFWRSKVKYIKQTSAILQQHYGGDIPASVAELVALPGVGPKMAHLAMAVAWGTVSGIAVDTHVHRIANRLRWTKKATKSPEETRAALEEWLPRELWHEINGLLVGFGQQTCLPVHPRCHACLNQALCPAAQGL
Description: Inhibition of NTHL1 by quantifying inhibition of NTHL1-mediated cleavage and dissociation of quenched duplex DNA oligonucleotides, measured as fluorescence at 594 nm.

[4] = target: T2, Adenine DNA glycosylase (Homo sapiens) (UniProt Q9UIF7);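 note: human MUTYH activity read as 594 nm fluorescence from cleavage and release of a quenched DNA duplex, coupled with APE1 for strand incision, lower signal meaning inhibition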
T2 sequence (whole entry): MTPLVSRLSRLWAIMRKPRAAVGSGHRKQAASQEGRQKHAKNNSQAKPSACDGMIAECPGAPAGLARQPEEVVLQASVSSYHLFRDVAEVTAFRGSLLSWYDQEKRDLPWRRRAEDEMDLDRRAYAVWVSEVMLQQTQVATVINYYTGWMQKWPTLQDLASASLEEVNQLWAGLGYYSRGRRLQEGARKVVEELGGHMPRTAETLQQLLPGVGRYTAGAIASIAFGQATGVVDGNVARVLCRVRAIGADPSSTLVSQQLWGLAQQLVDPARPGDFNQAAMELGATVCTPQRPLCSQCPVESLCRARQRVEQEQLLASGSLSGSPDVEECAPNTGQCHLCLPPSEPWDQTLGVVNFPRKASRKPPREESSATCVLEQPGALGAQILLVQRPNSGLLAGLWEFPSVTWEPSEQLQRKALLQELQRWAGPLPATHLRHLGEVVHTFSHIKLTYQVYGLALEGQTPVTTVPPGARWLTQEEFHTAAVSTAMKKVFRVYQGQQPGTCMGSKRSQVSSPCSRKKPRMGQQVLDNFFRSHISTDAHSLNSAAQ
Description: Inhibition of MUTYH by quantifying inhibition of MUTYH-mediated cleavage and dissociation of quenched duplex DNA oligonucleotides, measured as fluorescence at 594 nm. To generate a functional strand incision and increase turn-over this assay is coupled to APE1.

[5] = target: G/T mismatch-specific thymine DNA glycosylase (Homo sapiens) (UniProt Q13569);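 note: human TDG cleavage of quenched duplex DNA oligonucleotides coupled to APE1, strand release read as fluorescence at 594 nm, inhibition of TDG activity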
Description: Inhibition of TDG by quantifying inhibition of TDG-mediated cleavage and dissociation of quenched duplex DNA oligonucleotides, measured as fluorescence at 594 nm. To generate a functional strand incision and increase turn-over this assay is coupled to APE1.

[6] = target: Methyl-CpG-binding domain protein 4 (Homo sapiens) (UniProt O95243);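 note: MBD4 activity read as fluorescence at 594 nm from cleavage and release of a quenched duplex DNA oligonucleotide, with APE1 coupled to incise the strand and raise turnover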
Description: Inhibition of MBD4 by quantifying inhibition of MBD4-mediated cleavage and dissociation of quenched duplex DNA oligonucleotides, measured as fluorescence at 594 nm. To generate a functional strand incision and increase turn-over this assay is coupled to APE1.

[7] = target: Uracil-DNA glycosylase (Homo sapiens) (UniProt P13051);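 note: UNG excision on a quenched double-stranded DNA oligo probe, with APE1 added for strand incision and turnover, read as fluorescence at 594 nm as strands separate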
Description: Inhibition of UNG by quantifying inhibition of UNG-mediated cleavage and dissociation of quenched duplex DNA oligonucleotides, measured as fluorescence at 594 nm. To generate a functional strand incision and increase turn-over this assay is coupled to APE1.

[8] = target: T3, Single-strand selective monofunctional uracil DNA glycosylase (Homo sapiens) (UniProt Q53HV7);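 note: enzymatic SMUG1 assay coupled with APE1, reading fluorescence at 594 nm released when a quenched double-stranded DNA oligonucleotide substrate is cleaved and separated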
T3 sequence (whole entry): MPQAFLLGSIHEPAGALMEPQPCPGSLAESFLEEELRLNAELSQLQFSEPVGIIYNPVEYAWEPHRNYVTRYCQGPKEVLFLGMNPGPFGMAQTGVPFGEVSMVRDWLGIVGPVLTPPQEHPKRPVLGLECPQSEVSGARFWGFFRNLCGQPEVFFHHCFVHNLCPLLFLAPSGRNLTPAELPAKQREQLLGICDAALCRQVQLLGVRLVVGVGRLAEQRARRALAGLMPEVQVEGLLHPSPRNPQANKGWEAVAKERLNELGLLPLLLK
Description: Inhibition of SMUG1 by quantifying inhibition of SMUG1-mediated cleavage and dissociation of quenched duplex DNA oligonucleotides, measured as fluorescence at 594 nm. To generate a functional strand incision and increase turn-over this assay is coupled to APE1.

[9] = target: T4, Endonuclease 8-like 2 (Homo sapiens) (UniProt Q969S2);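 note: fluorescence at 594 nm reports NEIL2 cutting and release of a quenched double-stranded DNA oligo substrate, reduced signal read as inhibition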
T4 sequence (whole entry): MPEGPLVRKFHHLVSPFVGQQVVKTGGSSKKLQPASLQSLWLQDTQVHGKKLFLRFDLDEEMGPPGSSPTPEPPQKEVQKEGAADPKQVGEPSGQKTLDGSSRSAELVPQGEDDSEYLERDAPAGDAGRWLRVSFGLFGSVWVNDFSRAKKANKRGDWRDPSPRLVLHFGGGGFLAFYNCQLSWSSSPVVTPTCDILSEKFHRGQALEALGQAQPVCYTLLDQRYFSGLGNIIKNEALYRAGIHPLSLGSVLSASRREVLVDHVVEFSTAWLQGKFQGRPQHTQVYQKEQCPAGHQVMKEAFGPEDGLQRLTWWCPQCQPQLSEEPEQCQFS
Description: Inhibition of NEIL2 by quantifying inhibition of NEIL2-mediated cleavage and dissociation of quenched duplex DNA oligonucleotides, measured as fluorescence at 594 nm.

Sequence of Methyl-CpG-binding domain protein 4 (Homo sapiens) (O95243 whole entry, the tested form may be a part): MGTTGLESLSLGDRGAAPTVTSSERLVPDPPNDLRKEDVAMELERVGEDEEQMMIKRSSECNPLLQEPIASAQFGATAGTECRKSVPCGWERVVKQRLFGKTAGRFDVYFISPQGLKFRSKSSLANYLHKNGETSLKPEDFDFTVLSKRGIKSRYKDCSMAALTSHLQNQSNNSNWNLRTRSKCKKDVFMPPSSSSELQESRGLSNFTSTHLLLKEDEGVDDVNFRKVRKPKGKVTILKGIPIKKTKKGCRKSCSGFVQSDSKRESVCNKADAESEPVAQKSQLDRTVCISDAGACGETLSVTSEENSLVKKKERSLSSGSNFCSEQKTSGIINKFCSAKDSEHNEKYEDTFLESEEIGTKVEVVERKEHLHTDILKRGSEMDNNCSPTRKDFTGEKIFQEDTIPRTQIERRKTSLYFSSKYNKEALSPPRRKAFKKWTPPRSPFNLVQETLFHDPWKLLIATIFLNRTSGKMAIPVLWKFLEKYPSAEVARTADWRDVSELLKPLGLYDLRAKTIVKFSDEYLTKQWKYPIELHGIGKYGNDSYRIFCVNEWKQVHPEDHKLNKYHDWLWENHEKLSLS
Sequence of G/T mismatch-specific thymine DNA glycosylase (Homo sapiens) (Q13569 whole entry, the tested form may be a part): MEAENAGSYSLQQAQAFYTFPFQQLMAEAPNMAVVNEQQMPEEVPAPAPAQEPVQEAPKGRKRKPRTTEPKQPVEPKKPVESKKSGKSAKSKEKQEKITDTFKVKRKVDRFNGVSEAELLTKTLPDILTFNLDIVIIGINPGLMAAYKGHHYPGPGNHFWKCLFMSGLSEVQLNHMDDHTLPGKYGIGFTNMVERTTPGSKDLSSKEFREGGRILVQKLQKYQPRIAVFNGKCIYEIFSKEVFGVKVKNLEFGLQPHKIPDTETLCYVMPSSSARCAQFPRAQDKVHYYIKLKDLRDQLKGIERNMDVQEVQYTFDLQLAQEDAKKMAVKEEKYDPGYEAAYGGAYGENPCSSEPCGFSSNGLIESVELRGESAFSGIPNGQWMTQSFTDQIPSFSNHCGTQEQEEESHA
Sequence of N-glycosylase/DNA lyase (Homo sapiens) (O15527 whole entry): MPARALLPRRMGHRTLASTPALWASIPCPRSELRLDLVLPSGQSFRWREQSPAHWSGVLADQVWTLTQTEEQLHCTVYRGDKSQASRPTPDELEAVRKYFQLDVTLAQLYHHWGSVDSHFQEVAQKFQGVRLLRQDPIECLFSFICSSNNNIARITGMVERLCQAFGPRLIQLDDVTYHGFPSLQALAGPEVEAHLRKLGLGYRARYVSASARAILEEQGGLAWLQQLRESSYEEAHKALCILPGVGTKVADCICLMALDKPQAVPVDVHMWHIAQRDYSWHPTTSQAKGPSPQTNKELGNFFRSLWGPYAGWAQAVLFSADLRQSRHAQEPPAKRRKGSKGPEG
Sequence of Endonuclease 8-like 1 (Homo sapiens) (Q96FI4 whole entry): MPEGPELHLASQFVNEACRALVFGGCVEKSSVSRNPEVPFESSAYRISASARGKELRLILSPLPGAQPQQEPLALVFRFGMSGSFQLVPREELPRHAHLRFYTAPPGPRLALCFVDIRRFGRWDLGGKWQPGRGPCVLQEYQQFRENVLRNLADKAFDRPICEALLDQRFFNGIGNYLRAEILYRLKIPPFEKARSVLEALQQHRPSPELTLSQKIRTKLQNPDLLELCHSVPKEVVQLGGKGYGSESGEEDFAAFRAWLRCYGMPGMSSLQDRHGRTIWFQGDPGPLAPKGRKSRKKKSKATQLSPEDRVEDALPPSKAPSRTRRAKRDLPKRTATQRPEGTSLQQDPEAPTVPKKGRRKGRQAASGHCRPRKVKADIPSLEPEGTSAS
Sequence of Uracil-DNA glycosylase (Homo sapiens) (P13051 whole entry): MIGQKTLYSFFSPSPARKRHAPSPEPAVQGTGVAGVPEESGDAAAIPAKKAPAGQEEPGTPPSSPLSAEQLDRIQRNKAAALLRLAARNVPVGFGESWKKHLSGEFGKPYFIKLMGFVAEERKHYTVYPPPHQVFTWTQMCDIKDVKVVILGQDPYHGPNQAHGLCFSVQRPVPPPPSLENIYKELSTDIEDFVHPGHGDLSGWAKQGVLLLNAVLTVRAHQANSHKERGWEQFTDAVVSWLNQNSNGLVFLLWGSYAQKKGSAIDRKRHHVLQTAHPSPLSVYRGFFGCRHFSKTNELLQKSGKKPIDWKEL

SMILES	inhibition ([1]; Compound Concentration 1.0 uM) [%]	inhibition ([1]; Compound Concentration 10.0 uM) [%]	inhibition ([2]; Compound Concentration 1.0 uM) [%]	inhibition ([2]; Compound Concentration 10.0 uM) [%]	inhibition ([3]; Compound Concentration 1.0 uM) [%]	inhibition ([3]; Compound Concentration 10.0 uM) [%]	inhibition ([4]; Compound Concentration 1.0 uM) [%]	inhibition ([4]; Compound Concentration 10.0 uM) [%]	inhibition ([5]; Compound Concentration 1.0 uM) [%]	inhibition ([5]; Compound Concentration 10.0 uM) [%]	inhibition ([6]; Compound Concentration 1.0 uM) [%]	inhibition ([6]; Compound Concentration 10.0 uM) [%]	inhibition ([7]; Compound Concentration 1.0 uM) [%]	inhibition ([7]; Compound Concentration 10.0 uM) [%]	inhibition ([8]; Compound Concentration 1.0 uM) [%]	inhibition ([8]; Compound Concentration 10.0 uM) [%]	inhibition ([9]; Compound Concentration 10.0 uM) [%]	inhibition ([9]; Compound Concentration 1.0 uM) [%]
CC(C)(C)NC[C@H](O)COc1nsnc1N1CCOCC1		-3.29		-6.13		-8.34		2.84		9.57		2.07				-0.808	-5.47	
O=c1ccc2ccc(OCCCCN3CCN(c4cccc5sccc45)CC3)cc2[nH]1		-3.25		6.47		4.86		3.6		-1.81		-1.94				-9.19	-1.98	
CC(C)(C)c1ccc(C(=O)Nc2cn3cc(-n4ccnc4)ccc3n2)cc1		22.7		-0.391		-0.61		6.44		51.5		1.23		4.09		16.9		
COc1ccc(OC(=O)N(CC(=O)O)Cc2ccc(OCCc3nc(-c4ccccc4)oc3C)cc2)cc1		27				5.94		29.2		53.7		67.6		3.56		20.2		
Cn1cncc1[C@@](O)(COc1ccc(C#N)cc1-c1ccc(OC(F)(F)F)cc1)c1ccc(C#N)cc1		10.2				7.26		-9.72		45.8		56		-3.07		-1.81		
CCOCCn1cc(C(=O)Nc2ccc(-n3nc(-c4cccnc4)cc3C(F)(F)F)cn2)ccc1=O		3.33		-4.68		0.685		-6.66		35.4		54.1		1.33		18.6		
CC(C)(C)c1cc(NC(=O)Nc2ccc(-c3cn4c(n3)sc3cc(OCCN5CCOCC5)ccc34)cc2)no1			5.55		-3.4		11.2		37.3		0.784		1.47		19.8			1.85
COCCOc1nc(-c2ccc(Cl)nc2)nc2c1CN(C(=O)c1ncn3ccccc13)CC2	-1.84		-3.17		-3.92		-6.39		39.9		67.8		-0.22		8.24			
CCn1c(=O)c(C)cn(Cc2nnc(-c3ccc(F)c(O)c3F)s2)c1=O		-4.39				2		-9.23		48		53.9		-4.5		3.85		
CN1C2CCCC1CC(Nc1ccccc1Br)C2 (stereo not drawn)				-3.4		24.5		6.82		-8.71		11.1		-6.41		-9	-3.41	
CN(C)CCOc1ccc(-c2nc(-c3ccncc3)c(-c3ccc4c(c3)CC/C4=N\O)[nH]2)cc1				1.19		11.2		0.369		47.4		23.9		11.4		-6.49	26.4	
Cn1cc(-n2cnc3c(NCc4nc5cc(Cl)c(Cl)cc5[nH]4)nc(N4CCOCC4)nc32)cn1				6.21		-7.58		9.84		40.7		6.19		3.73		25.7	1.04	

The remaining lines, values ahead:

inhibition ([1]; Compound Concentration 1.0 uM) [%]	inhibition ([1]; Compound Concentration 10.0 uM) [%]	inhibition ([2]; Compound Concentration 1.0 uM) [%]	inhibition ([2]; Compound Concentration 10.0 uM) [%]	inhibition ([3]; Compound Concentration 1.0 uM) [%]	inhibition ([3]; Compound Concentration 10.0 uM) [%]	inhibition ([4]; Compound Concentration 1.0 uM) [%]	inhibition ([4]; Compound Concentration 10.0 uM) [%]	inhibition ([5]; Compound Concentration 1.0 uM) [%]	inhibition ([5]; Compound Concentration 10.0 uM) [%]	inhibition ([6]; Compound Concentration 1.0 uM) [%]	inhibition ([6]; Compound Concentration 10.0 uM) [%]	inhibition ([7]; Compound Concentration 1.0 uM) [%]	inhibition ([7]; Compound Concentration 10.0 uM) [%]	inhibition ([8]; Compound Concentration 1.0 uM) [%]	inhibition ([8]; Compound Concentration 10.0 uM) [%]	inhibition ([9]; Compound Concentration 10.0 uM) [%]	inhibition ([9]; Compound Concentration 1.0 uM) [%]	SMILES
12.9	-2.23	-2.64	-1.5	-1.31	2	-7.22	9.89	48.1	98.4	12.4	64.1	7.33	3.96	23.1	18			C[C@@H]1CN(c2cc(-c3n[nH]c4ccc(OC5(C)CC5)cc34)ncn2)C[C@H](C)O1
	6.26				1.48		1.28		37.3		-7.12		2.17		20.8			O[C@H]1CC[C@H](Nc2ncc3nc(Nc4c(F)cc(F)cc4F)n([C@H]4CCOC4)c3n2)CC1
-7.59				-3.92		2.68		48.2		43.1		4.22		16.9				COC[C@H](NC(=O)c1ccn(S(C)(=O)=O)c1)C(=O)Nc1nc(-c2cccc(-c3ccn(C)n3)c2)cs1
			0.666		-2		10.6		48.4		9.96		9.96		24.9	-5.96		CNc1ncc2cc(-c3ccc(-c4ncccc4F)cc3Cl)c(=O)n(C[C@H]3OC[C@H](N)CO3)c2n1
	-2.53		-0.204		17.3		3.09		3.04		-3.22				-0.227	3.51		O=C1N/C(=N/c2ccccc2F)S/C1=C\c1ccc(C(=O)O)cc1
			0.158		0.568		-5.27		11.1		-1.99		-5.19		-8.55	-4.17		Cc1cccc(CCN2CCC(C(=O)c3ccc(NS(C)(=O)=O)cc3)CC2)n1
			4.76		-0.61		2.74		40.3		-3.9		-0.0214		13.9	0.236		CC(C)C(=O)Nc1n[nH]c2cc(-c3cccc(NS(=O)(=O)C4CC4)c3)ccc12
			-2.36		15.4		-7.01		-1.07		1.36		-3.01		11.3	-3.15		COc1ccc(NC(=O)[C@@H]2C[C@H](C)CC[C@H]2C(C)C)cc1
	12.9				12.6		6.32		38		-5.03		2.95		16.5			Cc1nc(NC(=O)N2CCC[C@H]2C(N)=O)sc1-c1ccnc(C(C)(C)C(F)(F)F)c1
	-5.03				0.685		10.4		59.6		55.9		1.28		19.9			Cc1nccc(COC(=O)N2C[C@@H]3[C@@H](CNC(=O)c4ccc5[nH]nnc5c4)[C@@H]3C2)n1
		8.59		-4.79		8.56		44.4		18.6		-0.67		12.2			2.93	Cc1cc(F)c(C(=O)Nc2cccc(-c3nncn3C(C)C)n2)cc1-n1cnc(C2CC2)c1
			-2.51		24.5		10.7		9.39		10.3		-8.59		2.42	-7.74		N[C@@]1(C(=O)O)CO[C@H]2[C@H](C(=O)O)[C@H]21
